# What was measured:
# [1] = PET imaging and ex vivo biodistribution 4 h after oral administration of [68Ga]KP46, tracer (group C) and bulk (group D); format: in vivo, mice; settings: n = 3
# Description: The tracer-level samples for oral administration were prepared in the same manner but with 20 μL of KP46-free DMSO in place of the KP46 solution in DMSO.
# All animal experiments were performed in accordance with the Animals (Scientific Procedures) Act, 1986, with protocols approved by the Animal Welfare and Ethical Review Body for King’s College London under project and personal licences approved by the UK Home Office. Tumour xenograft studies were performed on female NSG mice or female athymic nude mice after injecting them subcutaneously in the right shoulder with 2.5 × 10^6 A375 cells in 100 µL of PBS. All in vivo studies were conducted between 14 and 24 days after inoculation, with tumour volumes between 100 mm^3 and 580 mm^3 (see Supplementary Materials, Figure S11).
# Oral [^68/67Ga]KP46: The protocol for oral administration experiments reported here was devised on the basis of pilot experiments described in Supplementary Materials (Figure S12). For short-term (up to 4 h) studies with ^68Ga, awake (nonanaesthetised, to avoid suppressive effects of anaesthesia on digestive tract activity) mice that had been fasted for up to 14 h were given [^68Ga]KP46 (5–13 MBq) (group C, “tracer”, n = 3) or [^68Ga]KP46 and KP46 (5–8.5 MBq) (group D, “bulk”, n = 3) by oral gavage. The dose given orally to group D animals, prepared as described above, was 0.4 μmol in 400 μL, molar activity ca. 25 MBq/μmol. The mice were fasted for three hours before being anaesthetised and PET/CT scanned dynamically for one hour (see below for scanning protocol). After scanning, mice in both groups were culled by neck dislocation while still anaesthetised four hours post-oral administration for organ harvesting and gamma counting. Samples of blood, urine and contents of stomach, small intestine and large intestine (the organs/tissue with measurable activity; tumours were not included as they were insufficiently radioactive) from the mice in group C were used for octanol extraction (shake-flask method) to separate water-soluble (released) and lipid-soluble (intact KP46) ^68Ga. Serum samples were prepared by placing blood samples in a serum separator tube (brand VS367954, Fisher Scientific Ltd., Loughborough, UK) and centrifuging at 3000 rpm for 10 min. Serum (200–300 µL) and urine samples (150–180 µL, taken from the excised bladders) were directly added to Eppendorf tubes containing a pre-equilibrated mixture of octanol (500 µL) and water (500 µL). The tubes were vortexed for two minutes on a Multi Vortex Mixer V-32 (Grant Bio). After separation of layers, a sample of 400 µL from each layer was transferred to fresh Eppendorf tubes and analysed with a gamma counter. Stomach content (72–77 mg), small intestine content (35–88 mg), and large intestine content (86–100 mg) samples from each mouse were analysed similarly by adding them directly to Eppendorf tubes containing a pre-equilibrated mixture of octanol (500 µL) and water (500 µL) before vortexing and centrifuging at 10,000 rpm for 10 min at 4 °C. From each layer, 430 µL was transferred to fresh Eppendorf tubes and analysed with a gamma counter; the solid residues were also counted. Tissues from mice in group D were used after radioactive decay for measurements of nonradioactive ^69Ga content.
# PET/CT images were acquired with a nanoScan® PET/CT (Mediso Medical Imaging Systems, Budapest, Hungary) scanner operating in list mode using a 400–600 keV energy window and a coincidence window of 1:3. CT scans were acquired for anatomical reference and attenuation correction (55 keV X-ray, exposure time 1000 ms, and 360 projections and pitch 1). PET projection data were reconstructed using the Tera-tomo® software package provided with the scanner —a Monte Carlo-based fully 3D iterative algorithm with four iterations, six subsets, and 0.4 mm isotropic voxel size; corrections for attenuation, scatter, and dead-time were enabled. […]
# [2] = Pilot study 1: oral [68Ga]KP46, mice kept anaesthetised for four hours, ex vivo biodistribution; format: in vivo; settings: anaesthetised 0-4 h
# Description: 67Ga citrate to 67Ga chloride conversion method
# 67Ga was provided as [67Ga]Ga-citrate, typically 418-430 MBq in 5.5 ml at the time of receipt (76-78 MBq/ml). The 67Ga-citrate solution was passed through a Sep-Pak plus light silica cartridge (part number WAT023537) at a flow rate of 1 ml/min to trap the 67Ga on the silica cartridge. The eluate was passed through again to capture more (total 80%) of the available radioactivity on the cartridge.
# The cartridge was then washed twice with 5 ml of H2O to remove citric acid, then eluted with 600 µl of 0.1 M HCl in 50 µl fractions. Fractions with the highest activity (fraction 4, 5, and 6) were used for […]
# Tumour xenograft development
# 500 Figure S11. Tumour growth profile of A375
# 400 human melanoma cells in female athymic nude mice (2.5 x 10^6 cells). Data are 300 reported as mean ± SD (n=24).
# Developing a method for the oral administration of [68Ga]KP46
# In the first pilot study, mice bearing a tumour xenograft (A375) were anaesthetised, orally administered with [68Ga]KP46 (10 MBq, 400 µl) and PET scanned (no CT scan was performed) for four hours (n = 1), or orally administered with [68Ga]KP46 (1–2 MBq, 400 µl) and kept anaesthetised for four hours (n = 3), before being culled for organ harvesting and gamma counting. […]
# radioactivity was in the stomach, with minimal uptake in the small intestine. […]
smiles,measurement,setting,value
[68Ga+3].[O-]c1cccc2cccnc12.[O-]c1cccc2cccnc12.[O-]c1cccc2cccnc12 [[^68Ga]KP46],68Ga activity delivered to tumour,[1]; bulk (group D),0.5 ± 0.3 %ID/g
same,68Ga activity in small intestine,[1]; bulk (group D),18.4 ± 5 %ID/g
same,68Ga activity in stomach,[1]; bulk (group D),11.9 ± 8.1 %ID/g
same,68Ga activity in large intestine,"[1]; bulk (group D, combined with KP46 0.4 μmol)",56.5 ± 21.4 %ID/g
same,"uptake in large intestine, ex vivo",[1]; tracer level (group C),61.7 ± 21.5 %ID/g
same,"uptake in small intestine, ex vivo",[1]; tracer level (group C),12.8 ± 4.1 %ID/g
same,"activity in tumour, ex vivo",[2],0.6 ± 0.3 %ID/g
